Data: ChEMBL document CHEMBL1201862, “PubChem BioAssay data set” (2004)
Calls of active or inactive are those of the source.

Key:
Genome polyprotein = Genome polyprotein (dengue virus type 2, UniProt P29990); assay: Dengue-2 NS5 methyltransferase inhibitors, primary screen, biochemical, confirmation dose response (AID 588689); assay type: functional
[1] = biological target: T1, Polyadenylate-binding protein 1 (Homo sapiens, UniProt P11940); assay: PABP1 MLLE–PAM2 interaction inhibitors, dose response, miRNA deadenylation inhibitor project, biochemical, fluorescence polarization, Cy5-PAM2 peptide, secondary (AID 602260); assay type: functional; conditions: read-out: IC50_Mean
[2] = biological target: T2, Voltage-gated N-type calcium channel alpha-1B subunit/Amyloid beta A4 precursor protein-binding family A member 1 (Homo sapiens, UniProt Q00975+Q02410); assay type: protein assay
[3] = biological target: T2, Voltage-gated N-type calcium channel alpha-1B subunit/Amyloid beta A4 precursor protein-binding family A member 1; assay type: protein assay; remark: listed apart in the source
[4] = biological target: T1, Polyadenylate-binding protein 1; assay: PABP1 MLLE–PAM2 binding inhibitor potency, dose response, biochemical, fluorescence polarization, FITC-PAM2 peptide (AID 602259); assay type: functional; conditions: read-out: IC50_Mean
[5] = biological target: T3, Rac GTPase-activating protein 1 (Homo sapiens, UniProt Q9H0H5); assay: MgcRacGAP GTPase-activating activity inhibitors, confirmation, biochemical, ADP Hunter fluorescence, primary and confirmatory (AID 624330); assay type: functional
T3 sequence (Q9H0H5 whole entry): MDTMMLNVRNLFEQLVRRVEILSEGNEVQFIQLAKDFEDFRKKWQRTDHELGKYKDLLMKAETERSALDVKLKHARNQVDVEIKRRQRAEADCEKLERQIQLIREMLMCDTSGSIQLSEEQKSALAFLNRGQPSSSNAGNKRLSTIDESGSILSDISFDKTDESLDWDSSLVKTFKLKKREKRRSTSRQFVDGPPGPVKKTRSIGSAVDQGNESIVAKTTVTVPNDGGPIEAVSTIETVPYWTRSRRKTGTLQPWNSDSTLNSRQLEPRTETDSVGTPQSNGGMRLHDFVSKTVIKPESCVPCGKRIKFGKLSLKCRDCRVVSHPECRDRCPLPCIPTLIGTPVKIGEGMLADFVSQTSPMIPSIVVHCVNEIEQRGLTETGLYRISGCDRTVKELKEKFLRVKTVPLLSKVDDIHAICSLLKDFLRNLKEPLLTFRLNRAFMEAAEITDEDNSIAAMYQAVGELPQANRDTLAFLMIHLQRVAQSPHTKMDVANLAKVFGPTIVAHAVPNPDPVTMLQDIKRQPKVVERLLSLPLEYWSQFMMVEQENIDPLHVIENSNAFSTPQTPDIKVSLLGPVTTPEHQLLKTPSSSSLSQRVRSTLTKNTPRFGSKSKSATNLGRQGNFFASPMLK

[6] = biological target: DNA damage-inducible transcript 3 protein (Mus musculus, UniProt P35639); assay type: functional, Cricetulus griseus
Troponin, cardiac muscle = Troponin, cardiac muscle (Homo sapiens, UniProt P19429+P45379+P63316); assay: Fluorescence-based biochemical high throughput dose response assay for activators of the calcium sensitivity of cardiac Regulated Thin Filaments (RTF). [Related pubchem assays (depositor defined):AID493008, AID493018, AID504382, AID504383]; assay type: protein-complex assay
[7] = inhibitors of firefly luciferase expression or activity, dose response, H4 neuroglioma cells, luminescence (AID 1990); assay type: functional, cell-based
[8] = Luminescence Cell-Based Dose Response HTS to Identify Inhibitors of 5'UTR Stem-Loop Driven Prion Protein mRNA Translation in H4 Neuroglioblastoma Cells. [Related pubchem assays: 1827 (Project Summary), 1813 (Primary HTS)]; assay type: functional
[9] = inhibitors of SNCA 5'UTR-driven reporter translation, confirmation, H4 neuroglioma cells, luminescence (AID 1988); assay type: functional, cell-based
[10] = biological target: G-protein coupled receptor 55 (Homo sapiens, UniProt Q9Y2T6); assay: GPR55 antagonists blocking LPI-driven arrestin recruitment, primary screen, imaging, U2OS, beta-arrestin-GFP, LPI agonist (AID 2013); assay type: functional;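 note: antagonist potency measured as reduced agonist-driven arrestin aggregation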
[11] = biological target: T4, Ubiquitin-conjugating enzyme E2 N (Homo sapiens, UniProt P61088); assay type: functional
T4 sequence (P61088 whole entry): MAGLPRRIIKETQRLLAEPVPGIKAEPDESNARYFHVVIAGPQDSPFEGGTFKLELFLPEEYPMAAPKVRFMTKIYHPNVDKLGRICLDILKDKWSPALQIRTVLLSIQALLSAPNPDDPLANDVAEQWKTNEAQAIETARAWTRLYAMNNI

[12] = cytotoxicity toward NIH3T3 fibroblasts, dose response, counter-screen, cell-based, ATP luminescence, mouse fibroblasts (AID 2010); assay type: functional;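 note: cells exposed to compound for about 90 hours before reading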
Bcl-2-related protein A1 = biological target: T5, Bcl-2-related protein A1 (Mus musculus, UniProt Q07440); assay type: functional;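 note: confirmatory dose–response counterscreen on Bfl-1, used to check hits from a UBC13 polyubiquitin inhibitor campaign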
T5 sequence (Q07440 whole entry): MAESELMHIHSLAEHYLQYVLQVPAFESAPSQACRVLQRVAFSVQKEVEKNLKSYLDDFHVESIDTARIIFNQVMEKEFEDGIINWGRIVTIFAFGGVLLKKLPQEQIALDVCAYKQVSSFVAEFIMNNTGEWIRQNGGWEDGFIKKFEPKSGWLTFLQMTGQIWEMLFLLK

[13] = inhibitors of intracellular T. cruzi replication, confirmation, NIH3T3 host cells, beta-gal luminescence (AID 2044); assay type: functional, cell-based;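 note: intracellular parasites grown in NIH/3T3 mouse fibroblasts as host cells; luminescent beta-galactosidase reporter signal from transgenic T. cruzi replicating inside host cells; inhibitors lower the luminescence signal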
[14] = biological target: T4, Ubiquitin-conjugating enzyme E2 N; assay type: functional; remark: listed apart in the source
Large T antigen = Large T antigen (Simian virus 40, UniProt P03070); assay type: functional, Betapolyomavirus macacae;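 note: Confirmatory-stage PubChem screen for compounds that inhibit SV40 T antigen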
[15] = biological target: DNA dC->dU-editing enzyme APOBEC-3G (Homo sapiens, UniProt Q9HC16); assay type: functional;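 note: Dose-response counterscreen measuring inhibition of APOBEC3G DNA deaminase activity, run while confirming APOBEC3A inhibitors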
[16] = biological target: DNA dC->dU-editing enzyme APOBEC-3A (Homo sapiens, UniProt P31941); assay: Dose Response confirmation of small molecule APOBEC3A DNA Deaminase Inhibitors via a fluorescence-based single-stranded DNA deaminase assay. [Related pubchem assays (depositor defined):AID493011, AID493024]; assay type: functional
Beta-galactosidase [17] = biological target: T6, Beta-galactosidase (Escherichia coli, UniProt Q8VNN2); assay: Dose response counterscreen for EBI2 assay utilizing the enzyme, b-galactosidase.; assay type: functional
[18] = growth suppression of beta-catenin-knockout colon cells, dose response, cell-based, HCT116, human colon tumor (AID 1045); assay type: functional;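 note: HCT116 colon tumor cells with beta catenin knocked out; cells exposed to compound for 60 hours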
[19] = growth suppression of PTEN-null colon cells, dose response, cell-based, HCT116 PTEN knockout (AID 1047); assay type: functional;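 note: HCT116 colon tumor cells with PTEN knocked out; cells exposed to compound for 60 hours before readout; potency for loss of cell viability measured by luminescence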
[20] = biological target: T1, Polyadenylate-binding protein 1; assay: PABP inhibition in translation initiation, SAR follow-up (AID 435018); assay type: functional
[21] = biological target: Eukaryotic translation initiation factor 4H (Homo sapiens, UniProt Q15056); assay: eIF4H inhibition in translation initiation, SAR follow-up (AID 435011); assay type: functional
[22] = biological target: T7, Kappa-type opioid receptor (Homo sapiens, UniProt P41145); assay type: functional
Streptococcus = assay: Group A Streptococcus viability loss, dose response, counter-screen for streptokinase expression inhibitor project, luminescence, BacTiterGlo (AID 1915); assay type: functional, organism-based;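 note: potency for reduction of bacterial viability or growth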
[23] = tested on: Streptococcus sp. 'group A'; assay: growth inhibition of control SK(-) GAS strain, dose response, counter-screen for streptokinase expression inhibitor project, luminescence, kanamycin, BacTiterGlo, confirmation (AID 1900); assay type: functional, organism-based
Streptokinase A = biological target: T8, Streptokinase A (Streptococcus pyogenes serotype M1, UniProt P10520); assay: S. pyogenes streptokinase expression inhibitors, potency, dose response, plasminogen activation absorbance, OD405 (AID 1914); assay type: functional, Streptococcus pyogenes M1 GAS;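 note: secreted streptokinase activity via plasminogen activation per viability signal from cell pellet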
T8 sequence (P10520 whole entry): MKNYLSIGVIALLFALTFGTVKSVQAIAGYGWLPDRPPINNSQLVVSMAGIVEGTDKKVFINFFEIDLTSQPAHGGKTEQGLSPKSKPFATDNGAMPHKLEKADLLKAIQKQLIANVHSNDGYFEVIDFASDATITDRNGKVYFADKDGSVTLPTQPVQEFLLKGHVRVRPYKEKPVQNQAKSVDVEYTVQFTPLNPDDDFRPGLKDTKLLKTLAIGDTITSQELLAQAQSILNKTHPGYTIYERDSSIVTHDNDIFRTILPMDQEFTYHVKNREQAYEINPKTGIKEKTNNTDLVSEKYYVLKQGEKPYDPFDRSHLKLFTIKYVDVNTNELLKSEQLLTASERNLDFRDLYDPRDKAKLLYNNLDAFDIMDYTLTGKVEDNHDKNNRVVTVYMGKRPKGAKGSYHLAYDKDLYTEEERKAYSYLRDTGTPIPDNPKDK

Beta-galactosidase [24] = biological target: T6, Beta-galactosidase; assay: PubChem AID 485352; assay type: functional
Estrogen receptor = biological target: T9, Estrogen receptor (Homo sapiens, UniProt P03372);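 note: potency for inhibiting coactivator peptide recruitment to the receptor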
T9 sequence (P03372 whole entry): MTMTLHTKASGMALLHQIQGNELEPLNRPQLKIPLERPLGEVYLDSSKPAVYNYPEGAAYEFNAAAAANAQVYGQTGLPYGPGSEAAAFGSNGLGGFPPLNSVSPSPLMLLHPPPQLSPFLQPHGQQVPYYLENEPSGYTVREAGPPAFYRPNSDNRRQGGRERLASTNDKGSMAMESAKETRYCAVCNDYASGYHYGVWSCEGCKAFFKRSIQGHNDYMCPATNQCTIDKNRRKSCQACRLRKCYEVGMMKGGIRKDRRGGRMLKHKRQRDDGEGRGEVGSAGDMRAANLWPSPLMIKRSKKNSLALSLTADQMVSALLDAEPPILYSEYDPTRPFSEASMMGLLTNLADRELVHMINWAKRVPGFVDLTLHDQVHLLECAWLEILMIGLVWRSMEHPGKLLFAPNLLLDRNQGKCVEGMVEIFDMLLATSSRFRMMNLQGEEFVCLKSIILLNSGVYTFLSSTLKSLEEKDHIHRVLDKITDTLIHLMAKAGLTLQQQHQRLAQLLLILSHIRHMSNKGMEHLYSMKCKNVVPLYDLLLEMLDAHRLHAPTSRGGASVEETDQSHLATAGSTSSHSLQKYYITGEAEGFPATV

Beta-galactosidase [25] = biological target: T6, Beta-galactosidase; assay type: functional
[26] = biological target: T7, Kappa-type opioid receptor; assay type: functional; remark: listed apart in the source
[27] = biological target: T10, Type-1 angiotensin II receptor (Homo sapiens, UniProt P30556); assay: AT1 receptor antagonists, dose response, selectivity assay for APJ receptor antagonist project, cell-based, uHTS hits (AID 463214); assay type: functional;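 note: antagonist potency against angiotensin II stimulated AT1 response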
T10 sequence (P30556 whole entry): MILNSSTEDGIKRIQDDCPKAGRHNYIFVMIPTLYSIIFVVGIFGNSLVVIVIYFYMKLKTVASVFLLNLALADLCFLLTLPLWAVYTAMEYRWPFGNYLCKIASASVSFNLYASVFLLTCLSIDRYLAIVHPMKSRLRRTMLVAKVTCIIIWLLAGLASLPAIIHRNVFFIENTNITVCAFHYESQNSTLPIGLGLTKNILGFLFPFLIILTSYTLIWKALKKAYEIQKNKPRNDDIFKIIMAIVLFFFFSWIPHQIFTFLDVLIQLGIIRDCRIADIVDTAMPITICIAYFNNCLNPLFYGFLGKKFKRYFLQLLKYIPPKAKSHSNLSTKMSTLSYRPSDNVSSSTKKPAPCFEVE

T6 sequence (Q8VNN2 whole entry): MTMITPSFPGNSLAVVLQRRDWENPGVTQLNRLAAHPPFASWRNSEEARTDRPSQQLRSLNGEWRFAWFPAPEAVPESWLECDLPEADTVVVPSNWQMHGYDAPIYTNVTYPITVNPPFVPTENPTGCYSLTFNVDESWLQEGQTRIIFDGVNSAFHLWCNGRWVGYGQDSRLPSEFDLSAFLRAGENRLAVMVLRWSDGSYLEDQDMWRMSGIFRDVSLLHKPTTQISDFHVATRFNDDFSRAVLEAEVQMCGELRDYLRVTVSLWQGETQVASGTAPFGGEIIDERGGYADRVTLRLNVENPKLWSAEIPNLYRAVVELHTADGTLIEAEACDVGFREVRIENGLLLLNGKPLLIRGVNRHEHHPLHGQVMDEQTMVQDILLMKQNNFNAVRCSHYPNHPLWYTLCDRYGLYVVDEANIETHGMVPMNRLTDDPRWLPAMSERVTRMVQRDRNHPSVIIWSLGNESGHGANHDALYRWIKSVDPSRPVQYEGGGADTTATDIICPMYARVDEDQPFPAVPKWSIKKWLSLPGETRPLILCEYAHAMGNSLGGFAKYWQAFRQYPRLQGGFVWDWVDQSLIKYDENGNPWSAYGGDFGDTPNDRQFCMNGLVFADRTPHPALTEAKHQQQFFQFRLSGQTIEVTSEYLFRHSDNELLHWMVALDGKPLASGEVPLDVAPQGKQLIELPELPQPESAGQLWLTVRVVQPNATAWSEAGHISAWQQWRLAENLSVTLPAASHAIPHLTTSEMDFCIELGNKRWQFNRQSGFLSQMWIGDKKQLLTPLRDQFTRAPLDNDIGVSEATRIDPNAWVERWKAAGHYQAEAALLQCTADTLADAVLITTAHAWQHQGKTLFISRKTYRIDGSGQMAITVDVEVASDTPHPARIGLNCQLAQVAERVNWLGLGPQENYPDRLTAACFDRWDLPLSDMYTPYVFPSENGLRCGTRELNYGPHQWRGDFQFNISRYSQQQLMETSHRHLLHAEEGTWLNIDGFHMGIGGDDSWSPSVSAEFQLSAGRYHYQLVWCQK
T2 sequence (Q00975 whole entry): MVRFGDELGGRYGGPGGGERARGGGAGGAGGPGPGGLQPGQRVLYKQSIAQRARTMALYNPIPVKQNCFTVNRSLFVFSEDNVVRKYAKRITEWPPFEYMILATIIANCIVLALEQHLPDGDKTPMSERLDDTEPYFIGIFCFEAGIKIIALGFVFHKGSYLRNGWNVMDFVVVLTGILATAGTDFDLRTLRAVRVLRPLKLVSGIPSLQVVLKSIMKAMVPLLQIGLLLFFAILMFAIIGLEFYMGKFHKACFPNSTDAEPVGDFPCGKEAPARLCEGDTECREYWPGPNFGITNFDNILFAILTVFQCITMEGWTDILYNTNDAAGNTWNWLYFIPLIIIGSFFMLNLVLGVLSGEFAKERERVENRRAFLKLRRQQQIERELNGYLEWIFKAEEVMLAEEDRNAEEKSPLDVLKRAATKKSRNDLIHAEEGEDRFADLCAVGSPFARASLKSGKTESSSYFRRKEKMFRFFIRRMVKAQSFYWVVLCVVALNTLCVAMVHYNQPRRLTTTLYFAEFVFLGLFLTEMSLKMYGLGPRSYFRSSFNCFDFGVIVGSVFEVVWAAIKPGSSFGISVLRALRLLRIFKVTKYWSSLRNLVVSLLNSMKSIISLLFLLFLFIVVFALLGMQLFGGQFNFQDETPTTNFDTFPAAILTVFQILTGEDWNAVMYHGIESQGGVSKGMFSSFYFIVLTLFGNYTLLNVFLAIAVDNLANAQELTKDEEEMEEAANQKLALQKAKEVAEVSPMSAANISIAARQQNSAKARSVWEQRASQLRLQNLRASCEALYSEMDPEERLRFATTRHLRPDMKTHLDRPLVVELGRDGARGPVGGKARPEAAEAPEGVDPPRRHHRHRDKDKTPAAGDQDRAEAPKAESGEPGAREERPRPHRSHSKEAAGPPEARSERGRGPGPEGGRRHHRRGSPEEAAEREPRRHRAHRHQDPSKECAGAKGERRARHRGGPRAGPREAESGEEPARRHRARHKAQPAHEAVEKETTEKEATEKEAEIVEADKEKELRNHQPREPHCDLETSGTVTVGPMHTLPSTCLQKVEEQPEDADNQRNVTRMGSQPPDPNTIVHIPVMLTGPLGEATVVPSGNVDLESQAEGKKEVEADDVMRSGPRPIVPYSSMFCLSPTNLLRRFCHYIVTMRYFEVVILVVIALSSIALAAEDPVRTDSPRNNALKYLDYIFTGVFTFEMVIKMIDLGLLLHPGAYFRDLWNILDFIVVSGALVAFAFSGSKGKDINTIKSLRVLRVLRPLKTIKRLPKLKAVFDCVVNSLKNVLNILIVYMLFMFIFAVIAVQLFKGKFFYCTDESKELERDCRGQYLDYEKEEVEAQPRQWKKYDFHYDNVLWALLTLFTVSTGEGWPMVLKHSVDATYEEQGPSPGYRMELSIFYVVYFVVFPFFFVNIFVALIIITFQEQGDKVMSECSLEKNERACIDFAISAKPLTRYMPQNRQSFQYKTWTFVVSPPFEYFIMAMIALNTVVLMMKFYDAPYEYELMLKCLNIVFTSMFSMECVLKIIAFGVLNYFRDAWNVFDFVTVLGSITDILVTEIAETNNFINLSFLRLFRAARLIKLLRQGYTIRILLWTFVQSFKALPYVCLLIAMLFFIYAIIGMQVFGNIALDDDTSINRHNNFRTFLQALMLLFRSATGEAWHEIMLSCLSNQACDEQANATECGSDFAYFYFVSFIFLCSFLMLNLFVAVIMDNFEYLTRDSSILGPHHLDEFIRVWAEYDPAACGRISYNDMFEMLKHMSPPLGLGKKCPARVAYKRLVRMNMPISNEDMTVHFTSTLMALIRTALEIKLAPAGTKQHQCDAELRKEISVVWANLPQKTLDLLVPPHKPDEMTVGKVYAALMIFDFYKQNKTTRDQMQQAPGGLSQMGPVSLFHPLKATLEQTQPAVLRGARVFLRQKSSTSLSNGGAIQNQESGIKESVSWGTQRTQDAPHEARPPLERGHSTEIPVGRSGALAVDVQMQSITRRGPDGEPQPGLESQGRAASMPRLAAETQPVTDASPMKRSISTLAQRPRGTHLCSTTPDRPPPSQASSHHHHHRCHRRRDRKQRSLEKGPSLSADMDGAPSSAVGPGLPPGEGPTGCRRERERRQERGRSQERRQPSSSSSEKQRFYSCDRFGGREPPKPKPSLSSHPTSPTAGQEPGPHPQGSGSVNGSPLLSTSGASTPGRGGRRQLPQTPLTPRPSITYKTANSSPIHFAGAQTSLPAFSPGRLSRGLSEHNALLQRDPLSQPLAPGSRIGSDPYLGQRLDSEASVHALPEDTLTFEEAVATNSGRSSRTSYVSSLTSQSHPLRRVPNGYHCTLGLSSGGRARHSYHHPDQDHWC
T2 sequence (Q02410 whole entry): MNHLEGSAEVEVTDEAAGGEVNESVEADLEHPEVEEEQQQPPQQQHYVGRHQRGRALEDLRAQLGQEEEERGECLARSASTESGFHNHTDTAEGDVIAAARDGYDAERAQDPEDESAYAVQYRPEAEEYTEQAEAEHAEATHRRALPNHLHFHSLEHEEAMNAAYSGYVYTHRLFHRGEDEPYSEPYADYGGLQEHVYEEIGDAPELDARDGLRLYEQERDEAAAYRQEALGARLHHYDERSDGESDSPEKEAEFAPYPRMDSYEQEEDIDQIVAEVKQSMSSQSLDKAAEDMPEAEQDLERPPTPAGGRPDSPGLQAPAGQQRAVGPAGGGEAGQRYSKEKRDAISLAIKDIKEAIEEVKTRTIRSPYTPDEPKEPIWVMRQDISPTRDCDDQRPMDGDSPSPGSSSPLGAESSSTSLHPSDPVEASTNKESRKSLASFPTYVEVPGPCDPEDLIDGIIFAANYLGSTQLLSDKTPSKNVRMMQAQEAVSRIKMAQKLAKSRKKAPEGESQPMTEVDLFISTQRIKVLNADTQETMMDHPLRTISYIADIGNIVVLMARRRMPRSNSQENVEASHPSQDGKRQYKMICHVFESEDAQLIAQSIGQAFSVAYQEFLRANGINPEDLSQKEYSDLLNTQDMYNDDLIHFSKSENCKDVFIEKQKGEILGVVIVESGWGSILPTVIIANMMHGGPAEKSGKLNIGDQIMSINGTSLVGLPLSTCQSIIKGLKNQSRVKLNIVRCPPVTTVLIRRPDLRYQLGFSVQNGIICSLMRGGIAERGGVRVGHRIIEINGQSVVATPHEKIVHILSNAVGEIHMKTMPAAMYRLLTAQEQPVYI
T1 sequence (P11940 whole entry): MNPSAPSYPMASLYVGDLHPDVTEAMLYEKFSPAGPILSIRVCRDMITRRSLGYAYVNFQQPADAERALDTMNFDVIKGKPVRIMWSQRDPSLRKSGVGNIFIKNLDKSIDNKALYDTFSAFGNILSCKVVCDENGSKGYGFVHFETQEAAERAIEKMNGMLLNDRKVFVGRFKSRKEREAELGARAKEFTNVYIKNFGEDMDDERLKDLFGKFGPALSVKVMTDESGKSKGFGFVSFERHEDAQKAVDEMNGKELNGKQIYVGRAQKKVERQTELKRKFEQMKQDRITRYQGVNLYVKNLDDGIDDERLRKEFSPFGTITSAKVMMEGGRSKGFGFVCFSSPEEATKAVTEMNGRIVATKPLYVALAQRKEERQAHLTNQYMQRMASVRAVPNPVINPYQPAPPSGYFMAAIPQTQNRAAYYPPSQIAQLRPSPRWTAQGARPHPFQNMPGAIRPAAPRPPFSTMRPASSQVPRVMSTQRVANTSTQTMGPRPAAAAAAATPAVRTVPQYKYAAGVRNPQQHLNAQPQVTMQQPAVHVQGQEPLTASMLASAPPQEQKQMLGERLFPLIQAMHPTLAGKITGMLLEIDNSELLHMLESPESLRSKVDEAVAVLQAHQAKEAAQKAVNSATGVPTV

Structure (SMILES): O=C(O)CCn1cc(C=C2C(=O)NC(=S)NC2=O)c(-c2ccccc2)n1
- IC50 (Genome polyprotein): 7.65 µM (active)
- IC50 [1]: > 66 µM (inactive)
- IC50 [2]: 19.8 µM (active)
- IC50 [3]: 13.1 µM (active)
- IC50 [4]: > 66 µM (inactive)
- IC50 [5]: 86.5 µM (active)

Structure (SMILES): CCOC(=O)c1sc(NN=C2C(=O)NC(=O)NC2=O)c(C(=O)OCC)c1C
- Absolute IC50 (CHOP) [6]: 10 µM

Structure (SMILES): O=C(CSc1nnc(COc2ccccc2)o1)N1CCN(c2ccccc2)CC1
- EC50 (Troponin, cardiac muscle): > 71.5 µM (inactive)

Structure (SMILES): COc1ccc(C2c3ccc(O)cc3Oc3ncn4nc(-c5cccnc5)nc4c32)cc1OC (stereo not drawn)
- EC50 [7]: > 120 µM (not active)
- EC50 [8]: 52.3 µM (active)
- EC50 [9]: > 120 µM (not active)
- IC50 [10]: 1.99 µM (active)

Structure (SMILES): COc1cc2nc(N(CCCN(C)C)C(=O)c3ccc(S(=O)(=O)N4CCc5ccccc5C4)cc3)sc2cc1OC
- IC50 [11]: 8.69 µM (active)
- EC50 (cells): 0.569 µM (active)
- EC50 [12]: > 60 µM (not active)
- IC50 (Bcl-2-related protein A1): > 20 µM (inactive)
- EC50 [13]: < 0.1 µM (active)
- IC50 [14]: 8.3 µM (active)

Structure (SMILES): O=C1NC(=O)N(CCc2ccc(F)cc2)C(=O)/C1=C/c1ccco1
- IC50 (Large T antigen): 12.3 µM (active)
- IC50 [2]: > 50 µM (inactive)
- IC50 [3]: 14.8 µM (active)
- IC50 [15]: 20.5 µM (active)
- IC50 [16]: 15 µM (active)

Structure (SMILES): CC1=C(C)C[S+]([O-])N(S(=O)(=O)c2ccccc2)C1 (stereo not drawn)
- IC50 (Large T antigen): 19 µM (active)
- IC50 [2]: > 50 µM (inactive)
- IC50 [3]: 41.7 µM (active)

Structure (SMILES): C=CCNC(=O)/C(C#N)=C/c1ccc(OS(=O)(=O)c2ccc(C)cc2)c(OC)c1
- IC50 (Beta-galactosidase [17]): > 80 µM (inactive)
- EC50 [18]: 26.6 µM (active)
- EC50 [19]: 28.1 µM (active)
- IC50 [10]: 1.93 µM (active)

Structure (SMILES): COc1ccc(C(=O)Nc2cccc3ncccc23)cc1
- IC50 [20]: > 100 µM (inactive)
- IC50 [21]: > 100 µM (inactive)

Structure (SMILES): Oc1c(/C=N/c2cccc3cccnc23)sc2ccccc12
- IC50 [22]: 1.12 µM
- EC50 (Streptococcus): 9.99 µM (active)
- EC50 [23]: 7.7 µM (active)
- EC50 [12]: > 60 µM (not active)
- EC50 (Streptokinase A): > 150 µM (not active)
- EC50 (Beta-galactosidase [24]): > 40 µM (inactive)
- IC50 (Estrogen receptor): 5.15 µM (active)
- EC50 [13]: 2.58 µM (active)
- EC50 (Beta-galactosidase [25]): > 31.5 µM (inactive)
- IC50 [26]: 4.86 µM (active)
- IC50 [27]: 2.78 µM (active)
